Source: BindingDB's records for aid1799746 (Csar, 2012)

The compounds below were run against T1, UDP-3-O-acyl-N-acetylglucosamine deacetylase (Aquifex aeolicus (strain VF5), UniProt O67648) (assay: ITC). Settings: pH 7; 25 °C.
T1 sequence (O67648 whole entry): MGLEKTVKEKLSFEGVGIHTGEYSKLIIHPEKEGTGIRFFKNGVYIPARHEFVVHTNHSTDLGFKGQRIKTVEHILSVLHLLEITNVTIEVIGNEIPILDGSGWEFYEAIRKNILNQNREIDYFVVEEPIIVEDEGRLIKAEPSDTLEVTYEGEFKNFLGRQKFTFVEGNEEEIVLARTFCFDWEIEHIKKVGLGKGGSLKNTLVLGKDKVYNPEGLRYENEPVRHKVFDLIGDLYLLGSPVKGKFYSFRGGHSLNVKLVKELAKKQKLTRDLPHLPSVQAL

Row | SMILES | Kd
1 | NC[C@H](NC(=O)c1ccc(-c2ccccc2)cc1)C(=O)NO [CS249] | 732 nM
2 | NC[C@H](NC(=O)c1ccc(-c2ccc(Br)cc2)cc1)C(=O)NO [CS250] | 242 nM
3 | C[C@@H](O)[C@H](NC(=O)c1ccc(-c2ccc(Br)cc2)cc1)C(=O)NO [CS258] | 122 nM
4 | C[C@@H](O)[C@H](NC(=O)c1ccc(C#Cc2ccccc2)cc1)C(=O)NO [CS259] | 1210 nM
5 | C[C@@H](O)[C@H](NC(=O)c1ccc(-c2ccccc2)cc1)C(=O)NO [CS263] | 224 nM
6 | O=C(NO)[C@H]1COC(c2ccc(F)c(C(F)(F)F)c2)=N1 [CS271] | 3960 nM
7 | O=C(NO)[C@H]1COC(c2cc3cc(F)ccc3[nH]2)=N1 [CS272] | 2250 nM
8 | O=C(NO)c1csc(-c2ccc(F)c(C(F)(F)F)c2)n1 [CS277] | 3500 nM
9 | O=C(NO)[C@H]1COC(c2ccc(F)cc2)=N1 [CS279] | 14800 nM
